The subject of this assay is OVA-sensitized/challenged mice. Put plainly: OVA allergen-induced airway inflammation mouse model, 28-day protocol, HK-X i.n. before challenges on days 25, 26, 27. In kind it is in vivo, mouse (BALB/c). An excerpt: The above-described murine model reproduces key features of human asthma. Late-phase allergen-specific pulmonary disease was induced in normal BALB/c mice using ovalbumin (OVA) as allergen. One protocol includes immunization of mice with i.p. OVA on days 1 and 14, and intranasal (i.n.) administration of OVA on days 14, 25, 26. and 27.
In a mouse model of allergen-induced airway inflammation, the role of mast cell in airway eosinophil infiltration, mucus release, and hyper-responsiveness to methacholine was examined.
Materials were used as described above. Mice received an i.p. injection of 0.2 ml (100 ug) of OVA complexed with aluminum potassium sulfate (alum) on day 0 and 14. On days 14, 25, 26, and 27, mice were anesthetized with 0.2 ml i.p. of ketamine (0.44 mg/ml)/xylazine (6.3 mg/ml) in normal saline before receiving an intranasal (i.n.) dose of 100 ug OVA in 0.05 ml normal saline on days 25, 26, and 27. Lung tissue was obtained 24 hours after the last i.n. challenge on day 28. The control group received normal saline with alum i.p. on days 0 and 14 and normal saline without alum i.n. on days 14, 25, 26, and 27. To assess the effect of HK-X inhibition on OVA induced asthma, HK-X (10 ug/ml) was given i.n. 30 minutes before each i.n. challenge on days 25, 26, and 27.
After tying off the left lung at the mainstem bronchus, the right lung was […] three times with 0.4 ml of normal saline. Bronchoalveolar lavage (BAL) fluid cells from a 0.05 ml aliquot of the pooled sample wee counted using a hemocytometer and the remaining fluid centrifuged at 4° C. for 10 minutes at 200 g. After resuspension of the cell pellet in normal saline containing 10% BSA, BAL cell smears were made on glass slides. To stain eosinophils, dried slides were stained with Discombe's diluting fluid (0.05% aqueous eosin and 5% (v/v) acetone in distilled water) for 5-8 minutes, rinsed with water for 0.5 minutes and counterstained with […] for 2 minutes
Following BAL, the trachea and left lung (upper and lower lobes) were obtained and fixed in 10% buffered formalin solution at 20° C. forlS hours. After the tissues were processed and embeded in paraffin, the tissues were cut into 5 μm sections and stained with Discombe's solution and counterstained with methylene blue as described above or stained with Hematoxylin and eosin. The eosinophil number per unit airway area (2200 μm^2) was determined by morphometry as previously described. Airway mucus was identified by a variety of staining methods, i.e., methylene blue, Hematoxylin and eosin, mucicarmine, toluidine blue, alcian blue, and alcian blue/periodic acid Schiff (PAS) reaction. […] The degree of mucus plugging of the airways (0.5-0.8 mm in diameter) also was assessed by morphometry. […]

Entries after “also recorded” stand apart in the source; their conditions may differ. Where no end group is shown, it is not given here. The star is where a group is joined. For = O=C*

For the substance “f-Met-Leu-Phe-Phe (For-MLFF) [Example 9]”, for the setting “10 μg HK-X intranasally 30 minutes prior to challenge, FIG. 9”, the “Cellular infiltration during asthmatic attack (histopathology)” value is “reduces the cellular infiltration”. Besides, under “OVA sensitized/challenged mice, FIGS. 8A, 9A, 10A”, the “Eosinophil influx into the lung tissue and BAL fluid” value is “markedly reduced”. Where the note is “OVA sensitized/challenged mice, histopathology FIGS. 8A, 9A, 10A, listed as HK-X”, the “Airway mucus release / secretion” value was “prevented airway mucus release; also recorded: blocked the airway mucus release; also recorded: prevents the airway mucus secretion; also recorded: reduces the mucus secretion in airways”. The “Reduction of eosinophil influx into the lung interstitium (morphometric analysis)” value (p<0.006 compared to OVA without HK-X, FIG. 11) came out at 90%.
